Legend:
Format in all cases: in vivo
corn = assay: Test Example 4: effect on crop by soil treatment (symbol c); conditions: 320 g/ha
Summary of the method: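 Grown at 25° C. to 30° C. in a greenhouse, the crops came from seed sown spot-wise in sterilized diluvial soil under roughly 1.5 cm of covering soil.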

Avena fatua = assay: Test Example 5: herbicidal effect by foliage application, plastic box (symbol I); conditions: 320 g/ha, 3 weeks after application
Summary of the method: (§1)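 Effect is rated 3 weeks after a foliar spray of water-diluted emulsion concentrate at a predetermined herbicide amount. Plants had grown 14 days in a 25° C. to 30° C. greenhouse from seed in sterilized diluvial soil.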

rapeseed = assay: Test Example 4: effect on crop by soil treatment (symbol g); conditions: 320 g/ha
Summary of the method: (§2)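 Crop seeds, among them rice, wheat, beet and rapeseed, were sown in sterilized diluvial soil and covered with about 1.5 cm of soil. Boxes were kept in a greenhouse at 25° C. to 30° C. for plant growth.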

Setaria viridis = assay: Test Example 5: herbicidal effect by foliage application, plastic box (symbol G); conditions: 320 g/ha, 3 weeks after application
Summary of the method: as §1

Galium spurium [1] = assay: Test Example 4: herbicidal effect by soil treatment (symbol Q); conditions: 320 g/ha
Summary of the method: (§3)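 Seeds were sown in sterilized diluvial soil, covered with about 1.5 cm of soil, and the soil surface was sprayed with a water-diluted emulsion of the compound at a predetermined rate. Plants grew in a greenhouse at 25° C. to 30° C.; effects were scored visually 3 weeks after application.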

rice = assay: Test Example 4: effect on crop by soil treatment (symbol b); conditions: 320 g/ha
Summary of the method: as §2

Stellaria media [2] = assay: Test Example 4: herbicidal effect by soil treatment (symbol P); conditions: 320 g/ha
Summary of the method: as §3

[3] = tested on: directly sowed rice plant; assay: Test Example 3: effect on crop by foliage application, Wagner pot (symbol b); conditions: application herbicide amount 320 g/ha
Summary of the method: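 Plants are raised from seed in flooded paddy conditions: water stands 0.1–0.5 cm over alluvial soil, and the pot is kept in a greenhouse at 25–30 °C. Species sown are barnyardgrass (E. crus-galli var. crus-galli), Leptochloa chinensis, Cyperus difformis and rice.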

Alopecurus myosuroides = assay: Test Example 4: herbicidal effect by soil treatment (symbol J); conditions: 320 g/ha
Summary of the method: as §3

[4] = tested on: Echinochloa crus-galli var. crus-galli; assay: Test Example 4: herbicidal effect by soil treatment (symbol H); conditions: 320 g/ha
Summary of the method: as §3

Veronica persica [5] = assay: Test Example 4: herbicidal effect by soil treatment (symbol R); conditions: 320 g/ha
Summary of the method: as §3

rice plant = assay: Test Example 5: effect on crop by foliage application, plastic box (symbol b); conditions: 320 g/ha, 3 weeks after application
Summary of the method: (§4)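 Seeds were sown in spots in sterilized diluvial soil held in a plastic box 21 cm × 13 cm × 7 cm deep, covered with about 1.5 cm of soil, and grown in a greenhouse at 25° C. to 30° C.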

soybean = assay: Test Example 4: effect on crop by soil treatment (symbol d); conditions: 320 g/ha
Summary of the method: as §2

beet [6] = assay: Test Example 5: effect on crop by foliage application, plastic box (symbol f); conditions: 320 g/ha, 3 weeks after application
Summary of the method: as §4

Lolium multiflorum Lam. = assay: Test Example 4: herbicidal effect by soil treatment (symbol K); conditions: 320 g/ha
Summary of the method: as §3

beet [7] = assay: Test Example 4: effect on crop by soil treatment (symbol f); conditions: 320 g/ha
Summary of the method: as §2

Apera spica-venti = assay: Test Example 5: herbicidal effect by foliage application, plastic box (symbol L); conditions: 320 g/ha, 3 weeks after application
Summary of the method: as §1

Abutilon theophrasti = assay: Test Example 5: herbicidal effect by foliage application, plastic box (symbol M); conditions: 320 g/ha, 3 weeks after application
Summary of the method: as §1

Digitaria ciliaris [8] = assay: Test Example 5: herbicidal effect by foliage application, plastic box (symbol F); conditions: 320 g/ha, 3 weeks after application
Summary of the method: as §1

Veronica persica [9] = assay: Test Example 5: herbicidal effect by foliage application, plastic box (symbol R); conditions: 320 g/ha, 3 weeks after application
Summary of the method: as §1

Chenopodium album = assay: Test Example 5: herbicidal effect by foliage application, plastic box (symbol O); conditions: 320 g/ha, 3 weeks after application
Summary of the method: as §1

Stellaria media [10] = assay: Test Example 5: herbicidal effect by foliage application, plastic box (symbol P); conditions: 320 g/ha, 3 weeks after application
Summary of the method: as §1

Digitaria ciliaris [11] = assay: Test Example 4: herbicidal effect by soil treatment (symbol F); conditions: 320 g/ha
Summary of the method: as §3

wheat = assay: Test Example 5: effect on crop by foliage application, plastic box (symbol e); conditions: 320 g/ha, 3 weeks after application
Summary of the method: as §4

Galium spurium [12] = assay: Test Example 5: herbicidal effect by foliage application, plastic box (symbol Q); conditions: 320 g/ha, 3 weeks after application
Summary of the method: as §1

| SMILES | c: corn, effect grade on crop (corn) | I: Avena fatua, herbicidal effect (criteria 0-5) (Avena fatua) | g: rapeseed, effect grade on crop (rapeseed) | G: Setaria viridis, herbicidal effect (criteria 0-5) (Setaria viridis) | Q: Galium spurium, herbicidal effect grade (Galium spurium [1]) | b: directly sowed rice plant, effect grade on crop (rice) | P: Stellaria media, herbicidal effect grade (Stellaria media [2]) | effect on crop b (directly sowed rice plant), grade 0-5 [3] | J: Alopecurus myosuroides, herbicidal effect grade (Alopecurus myosuroides) | H: Echinochloa crus-galli var. crus-galli, herbicidal effect grade [4] | R: Veronica persica, herbicidal effect grade (Veronica persica [5]) | b: directly sowed rice plant, effect on crop (criteria 0-5) (rice plant) | d: soybean, effect grade on crop (soybean) | f: beet, effect on crop (criteria 0-5) (beet [6]) | K: Lolium multiflorum Lam., herbicidal effect grade (Lolium multiflorum Lam.) | f: beet, effect grade on crop (beet [7]) | L: Apera spica-venti, herbicidal effect (criteria 0-5) (Apera spica-venti) | M: Abutilon theophrasti, herbicidal effect (criteria 0-5) (Abutilon theophrasti) | F: Digitaria ciliaris, herbicidal effect (criteria 0-5) (Digitaria ciliaris [8]) | R: Veronica persica, herbicidal effect (criteria 0-5) (Veronica persica [9]) | other results |
| --- | --- | --- | --- | --- | --- | --- | --- | --- | --- | --- | --- | --- | --- | --- | --- | --- | --- | --- | --- | --- | --- |
| CC(CC1CC(O)=C(c2c(C)cc(C)cc2C)C1=O)=NOCc1ccccc1[N+](=O)[O-] (stereo not drawn) [1-119] | 0 (Herbicidal ratio of 5% or lower (almost no effect)) | 5 (Herbicidal ratio of 90% or more (almost completely withered)) | 3 (Herbicidal ratio of 40% or higher and lower than 70%) | 5 (Herbicidal ratio of 90% or more (almost completely withered)) | 0 (Herbicidal ratio of 5% or lower (almost no effect)) | 5 (Herbicidal ratio of 90% or more (almost completely withered)) | 0 (Herbicidal ratio of 5% or lower (almost no effect)) | 5 (Herbicidal ratio of 90% or more (almost completely withered)) | 4 (Herbicidal ratio of 70% or higher and lower than 90%) | 5 (Herbicidal ratio of 90% or more (almost completely withered)) | 0 (Herbicidal ratio of 5% or lower (almost no effect)) | 5 (Herbicidal ratio of 90% or more (almost completely withered)) | 0 (Herbicidal ratio of 5% or lower (almost no effect)) | 0 (Herbicidal ratio of 5% or lower (almost no effect)) | 5 (Herbicidal ratio of 90% or more (almost completely withered)) | 0 (Herbicidal ratio of 5% or lower (almost no effect)) | 5 (Herbicidal ratio of 90% or more (almost completely withered)) | 1 (Herbicidal ratio of 5% or higher and lower than 20%) | 5 (Herbicidal ratio of 90% or more (almost completely withered)) | 3 (Herbicidal ratio of 40% or higher and lower than 70%) | O: Chenopodium album, herbicidal effect (criteria 0-5) (Chenopodium album): 3 (Herbicidal ratio of 40% or higher and lower than 70%); P: Stellaria media, herbicidal effect (criteria 0-5) (Stellaria media [10]): 1 (Herbicidal ratio of 5% or higher and lower than 20%); F: Digitaria ciliaris, herbicidal effect grade (Digitaria ciliaris [11]): 4 (Herbicidal ratio of 70% or higher and lower than 90%); e: wheat, effect on crop (criteria 0-5) (wheat): 4 (Herbicidal ratio of 70% or higher and lower than 90%); Q: Galium spurium, herbicidal effect (criteria 0-5) (Galium spurium [12]): 0 (Herbicidal ratio of 5% or lower (almost no effect)) |
| CC(CC1CC(O)=C(c2c(C)cc(C)cc2C)C1=O)=NOCC(C)Cl (stereo not drawn) [1-121] | 1 (Herbicidal ratio of 5% or higher and lower than 20%) | 5 (Herbicidal ratio of 90% or more (almost completely withered)) | 3 (Herbicidal ratio of 40% or higher and lower than 70%) | 5 (Herbicidal ratio of 90% or more (almost completely withered)) | 0 (Herbicidal ratio of 5% or lower (almost no effect)) | 5 (Herbicidal ratio of 90% or more (almost completely withered)) | 0 (Herbicidal ratio of 5% or lower (almost no effect)) | 5 (Herbicidal ratio of 90% or more (almost completely withered)) | 5 (Herbicidal ratio of 90% or more (almost completely withered)) | 5 (Herbicidal ratio of 90% or more (almost completely withered)) | 0 (Herbicidal ratio of 5% or lower (almost no effect)) | 5 (Herbicidal ratio of 90% or more (almost completely withered)) | 0 (Herbicidal ratio of 5% or lower (almost no effect)) | 0 (Herbicidal ratio of 5% or lower (almost no effect)) | 5 (Herbicidal ratio of 90% or more (almost completely withered)) | 0 (Herbicidal ratio of 5% or lower (almost no effect)) | 5 (Herbicidal ratio of 90% or more (almost completely withered)) | 3 (Herbicidal ratio of 40% or higher and lower than 70%) | 5 (Herbicidal ratio of 90% or more (almost completely withered)) | 3 (Herbicidal ratio of 40% or higher and lower than 70%) | O: Chenopodium album, herbicidal effect (criteria 0-5) (Chenopodium album): 3 (Herbicidal ratio of 40% or higher and lower than 70%); P: Stellaria media, herbicidal effect (criteria 0-5) (Stellaria media [10]): 2 (Herbicidal ratio of 20% or higher and lower than 40%); F: Digitaria ciliaris, herbicidal effect grade (Digitaria ciliaris [11]): 5 (Herbicidal ratio of 90% or more (almost completely withered)); e: wheat, effect on crop (criteria 0-5) (wheat): 3 (Herbicidal ratio of 40% or higher and lower than 70%); Q: Galium spurium, herbicidal effect (criteria 0-5) (Galium spurium [12]): 0 (Herbicidal ratio of 5% or lower (almost no effect)) |
| CON=C(C)CC1CC(OS(=O)(=O)N(C)C)=C(c2c(C)cc(C)cc2C)C1=O (stereo not drawn) [1-122] | 2 (Herbicidal ratio of 20% or higher and lower than 40%) | 5 (Herbicidal ratio of 90% or more (almost completely withered)) | 0 (Herbicidal ratio of 5% or lower (almost no effect)) | 5 (Herbicidal ratio of 90% or more (almost completely withered)) | 0 (Herbicidal ratio of 5% or lower (almost no effect)) | 4 (Herbicidal ratio of 70% or higher and lower than 90%) | 0 (Herbicidal ratio of 5% or lower (almost no effect)) | 5 (Herbicidal ratio of 90% or more (almost completely withered)) | 5 (Herbicidal ratio of 90% or more (almost completely withered)) | 4 (Herbicidal ratio of 70% or higher and lower than 90%) | 0 (Herbicidal ratio of 5% or lower (almost no effect)) | 5 (Herbicidal ratio of 90% or more (almost completely withered)) | 0 (Herbicidal ratio of 5% or lower (almost no effect)) | 0 (Herbicidal ratio of 5% or lower (almost no effect)) | 5 (Herbicidal ratio of 90% or more (almost completely withered)) | 0 (Herbicidal ratio of 5% or lower (almost no effect)) | 5 (Herbicidal ratio of 90% or more (almost completely withered)) | 4 (Herbicidal ratio of 70% or higher and lower than 90%) | 4 (Herbicidal ratio of 70% or higher and lower than 90%) | 0 (Herbicidal ratio of 5% or lower (almost no effect)) | O: Chenopodium album, herbicidal effect (criteria 0-5) (Chenopodium album): 0 (Herbicidal ratio of 5% or lower (almost no effect)); P: Stellaria media, herbicidal effect (criteria 0-5) (Stellaria media [10]): 1 (Herbicidal ratio of 5% or higher and lower than 20%); F: Digitaria ciliaris, herbicidal effect grade (Digitaria ciliaris [11]): 2 (Herbicidal ratio of 20% or higher and lower than 40%); e: wheat, effect on crop (criteria 0-5) (wheat): 4 (Herbicidal ratio of 70% or higher and lower than 90%); Q: Galium spurium, herbicidal effect (criteria 0-5) (Galium spurium [12]): 0 (Herbicidal ratio of 5% or lower (almost no effect)) |

From patent US11000033B2, “Ketone or oxime compound, and herbicide” (NISSAN CHEMICAL CORPORATION, priority 2014, dated 2021)
